Experimental data from publication PMC7932537, “Quantitative profiling of protease specificity” (PLoS Computational Biology, 2021).

Legend:
[1] = system: MMP-2; assay: N-terminomic (TMT) analysis of MMP-treated HEK293 secretome: isotopic enrichment of novel N-termini; format: biochemical, human; conditions: for isotopic enrichment (log2(ratio)): MMP2 cleavages in HEK293 cell proteins, determined by LC-MS/MS, novel N-termini, sections log2(ratio) >3σ, 2σ-3σ, 1σ-2σ, RP above 4.5
Experimental: (§1) This was done to achieve a reasonable compromise between the false positive and false negative rates based on the statistical model developed by the authors. […] (See Methods for details).
(§2) HEK293 cells were seeded in 150-mm tissue culture dishes (Corning) and grown to confluence. The confluent cultures were washed with PBS several times to remove serum proteins and kept in serum-free DMEM supplemented with 1 μM GM6001 for 72 hours at 37 C, 5% CO2. The conditioned media was centrifuged at 10,000 x g for 30 minutes at 4 C and concentrated ~100-fold using Centricon Plus-70 (AMD Millipore) 3-kDa m.w. cut-off ultrafilter, and the buffer was exchanged to 50 mM HEPES pH 7.0 containing 150 mM NaCl and 10 mM CaCl2 (Reaction Buffer) using a PD-10 desalting column (GE Healthcare). Aliquots containing 240 μg total protein were incubated at 37 C in the presence of 750 nM MMP2 or 9 or the Reaction Buffer alone for 2 hours. Each reaction was carried out in duplicate. The reactions were stopped by addition of 20 mM EDTA and subjected to denaturation/reduction (4M Urea and 10 mM TCEP, 1 h, 22°C) and alkylation (20 mM iodoacetamide, 30 min, 22°C, in dark). […] The TMT-labeled samples were pooled together, and subjected to TCA precipitation (20% TCA, 16 h, 4°C). Each pellet was washed with -20°C acetone, recovered in 50 mM Tris-HCl pH 8.0, and then digested with trypsin/Lys-C (Promega) for 16 h at 37°C. Digestions were stopped with 0.2% TFA and centrifuged to remove insoluble material. The supernatants were then desalted using Sep-Pak C18 cartridge (50 mg), and then lyophilized.
(§3) Dried pooled sample was reconstituted in 20 mM ammonium formate pH ~10 and fractionated using a Waters Acquity BEH C18 column (2.1x 15 cm, 1.7 μm pore size) mounted on an M-Class Ultra Performance Liquid Chromatography (UPLC) system (Waters). […] A total of 32 fractions were collected and pooled in a non-contiguous manner into 16 total fractions. Pooled fractions were dried to completeness in a SpeedVac concentrator prior to mass spectrometry analysis.
(§4) Dried peptide fractions were reconstituted with 2% ACN-0.1% FA and analyzed by LC-MS/MS using a Proxeon EASY nanoLC system (Thermo Fisher Scientific) coupled to a Q-Exactive Plus mass spectrometer (Thermo Fisher Scientific). […] The mass spectrometer was operated in positive data-dependent acquisition mode. MS1 spectra were measured with a resolution of 70,000 (AGC target: 1e6; mass range: 350–1700 m/z).
(§5) The false discovery rate (FDR) filter for spectrum and protein identification was set to 1%. Carbamidomethylation of cysteines was searched as a fixed modification, while oxidation of methionines and N-terminal acetylation were searched as variable modifications. Enzyme was set to trypsin in a semispecific mode and a maximum of two missed cleavages was allowed for searching. To obtain quantification of the TMT-labeled N-termini, two independent searches were performed–one with TMT10plex MS2 N-terminal reporter quantification and the other for quantification of N-terminal and lysine sidechain.

[2] = system: MMP-9; assay: as above; format: biochemical, human; conditions: for isotopic enrichment (log2(ratio)) (acc.to MMP9): HEK293 proteins; for isotopic enrichment (log2(ratio)): MMP9 cleavages in HEK293 cell proteins, determined by LC-MS/MS, log2(ratio) range (>3σ, 2σ-3σ, 1σ-2σ)
Experimental: as §1, §2, §3, §4, §5

[3] = MMP2 cleaved HEK293 proteins, common set of MMP2-9 selectome, LC-MS/MS
[4] = MS detected cleavage sequence, HEK293 proteins, common MMP2-9 selectome
[5] = MMP9, common set of MMP2-9 selectome, LC-MS/MS
[6] = MS detected cleavage sequence, common MMP2-9 selectome
[7] = MS detected cleavage sequence, HEK293 proteins, unique part of MMP2 selectome
[8] = MS detected cleavage sequence, unique part of MMP2 selectome

| Substance | isotopic enrichment (log2(ratio)) (acc.to MMP2) [1, 3] | isotopic enrichment (log2(ratio)) (acc.to MMP2) [1, 4] | isotopic enrichment (log2(ratio)) (acc.to MMP9) [2, 5] | isotopic enrichment (log2(ratio)) [2] | isotopic enrichment (log2(ratio)) (acc.to MMP9) [2, 6] | isotopic enrichment (log2(ratio)) (acc.to MMP2) [1, 7] | isotopic enrichment (log2(ratio)) (acc.to MMP9) [2, 8] | isotopic enrichment (log2(ratio)) [1] |
| --- | --- | --- | --- | --- | --- | --- | --- | --- |
| NFLSW-LYNDSP | 1.971 | 1.971 log2(ratio) | 1.57 | 1.57 | 1.57 log2(ratio) |  |  |  |
| NFWGA-LSADGY |  |  |  |  |  | 1.683 log2(ratio) | 0.9855 log2(ratio) |  |
| PALAY-LASAPP |  |  |  |  |  | 1.345 log2(ratio) | 0.4436 log2(ratio) |  |
| PEPES-WNAAQH |  |  |  |  |  | 1.66 log2(ratio) | 1.956 log2(ratio) |  |
| PEPPP-LSGAPQ | 1.367 | 1.367 log2(ratio) | 1.9855 | 1.9855 | 1.9855 log2(ratio) |  |  |  |
| PFPDG-LAEDID |  | 0.9928 log2(ratio) |  | 3.878 | 3.878 log2(ratio) |  |  |  |
| PQAKA-LLQDKD |  | 0.9928 log2(ratio) | 1.48 | 1.48 | 1.48 log2(ratio) |  |  |  |
| PTAAA-IAYGLD | 1.585 |  | 0.8074 |  |  |  |  | 1.585 log2(ratio) |
| PTPVP-VVGSQM | 1.915 | 1.915 log2(ratio) | 2.707 | 2.707 | 2.707 log2(ratio) |  |  |  |
| QLNAQ-LAAGNP |  |  |  |  |  | 1.66 log2(ratio) | 0.8237 log2(ratio) |  |
| QSPVA-VSQSKP | 4.031 | 4.031 log2(ratio) | 4.621 | 4.621 | 4.621 log2(ratio) |  |  |  |
| RKATP-YTFPGG | 1.541 | 1.541 log2(ratio) | 1.753 | 1.753 | 1.753 log2(ratio) |  |  |  |
| RTLRA-VCGQPG |  | 0.2987 log2(ratio) |  | 1.47 | 1.47 log2(ratio) |  |  |  |
| SDPLT-LLQADT | 1.22 | 2.4906 log2(ratio) | 2.254 | 2.254 | 2.254 log2(ratio) |  |  | 1.22 log2(ratio) |
| SEPAD-FKVDED | 1.891 |  | 1.104 |  |  |  |  | 1.891 log2(ratio) |
| SHLGR-YLAADK |  |  |  |  |  | 2.483 log2(ratio) | -1.0291 log2(ratio) |  |
| SLARA-YSSFNP | 2.269 | 2.269 log2(ratio) | 2.539 | 2.539 | 2.539 log2(ratio) |  |  |  |
| SSAAA-LSLCEG | 1.036 |  | 0.3785 |  |  |  |  | 1.036 log2(ratio) |
